Patent US4755510A, “Novel anticonvulsive tetrahydro-1,2,4-oxadiazine-5-thion derivatives and use” (Richter Gedeon Vegyeszeti Gyar R.T., priority 1984, dated 1988)
Read-outs that look alike come from different tables or passages of the source.

Assays:
Male CFLP (LATI) mice [1] = experiment: Maximal electroshock (MES), protection from tonic extensoric spasm of the lower limbs; type: in vivo; conditions: Mus musculus, po; for ED50: read-out: Anticonvulsive activity MES ED50; for inhibition at 30 mg/kg: read-out: MES inhibition (%)
Procedure: (§1) The compound to be tested was suspended in 2 percent aqueous Tween 80 (polyoxyethylene sorbitane monolaurate) solution and it was orally administered to the animals through a bougie in a dose of 30 mg/kg when the anticonvulsive activity was tested, while in a dose of 120 mg/kg when the neurotoxic activity was examined. The effect triggered was measured after 1 hour of the administration. Male CFLP (LATI) mice having a weight of 18 to 22 g were used in the tests.
The animals were shocked with a corneal electrode (20 mA, 0.2 sec.) (H. Schachs Elektronik, Marchs, Augstatten, Germany, "schockreizgerat" typ. 207) according to the method of E. A. Swinyard et al. (J. Pharmacol. Exp. Ther. 106, 318 (1952)]. 100% of the control animals responded to the stimulus by the tonic extensoric spasm of the lower limbs. The lack of these occurences was attributed to the protection obtained by the treatment.
MES: maximal electroshock

Male CFLP (LATI) mice [2] = experiment: Spasm stimulated by Pentetrazole (PTT); type: in vivo; conditions: po; for ED50: Mus musculus, read-out: Anticonvulsive activity PTT TE (tonic extensoric spasm) ED50
Procedure: as §1
According to the method of G. M. Everett and R. K. Richard [J. Pharmacol. Exp. Ther., 81, 402, (1944)] the test animals were treated with 125 mg/kg of Pentetrazole (pentamethylene tetrazole) after 1 hour of the administration of the compound to be tested. The lack of the clonic spasm (KI) and the tonic extensoric spasm of the lower limbs (TE) was attributed to the protection obtained as a result of the treatment.
PTT: inhibition of the spasm stimulated by pentetrazole
TE: tonic extensoric spasm

Acute toxicity (LD50) = type: in vivo; conditions: mouse, in vivo, po; one dose, observation through 14 days; probit analysis; read-out: Acute tox. LD50
Procedure: as §1
(§2) The toxicity of the compounds was examined after the administration of 1000 mg/kg of the test compound in one dose by an observation through 14 days. The LD50 value (50 percentile lethal dose) was calculated by probite analysis on the basis of the percentile ratio of the animals died within the 14 days.

Male CFLP (LATI) mice [3] = experiment: Spasm stimulated by strychnine (Str); type: in vivo; conditions: Mus musculus, po, 1 h, read-out: Anticonvulsive activity Str (spasm stimulated by strychnine) ED50
Procedure: as §1
According to the method of T. L. Kerley et al. [J. Pharmacol. Exp. Ther. 132, 360 (1961)] the test animals were i. p. treated with 2.5 mg/kg of strychnine after 1 hour of the administration of the active ingredient to be tested.
Str: inhibition of the spasm stimulated by strychnine

[4] = Neurotoxicity (muscle uncoordination), rotating bar (FR); parameters: species or system mice (male CFLP (LATI)); conditions: mouse, in vivo, po
Procedure: as §1
The change of the coordinated muscle motion was examined on a rotating bar according to the method of C. J. Carr [J. Pharmacol. Exp. Ther., 121, 354 (1957)] (diameter: 20 mm, number of revolutions: 12/minute). The trained control animals could stay on the bar for 120 seconds. After 1 hour of the administration of the test compound, it was examined which percent of the animals fell down from the rotating bar within 120 seconds.

Male CFLP (LATI) mice [5] = experiment: Acute toxicity (LD50); type: in vivo; conditions: one dose, observation through 14 days; probit analysis
Procedure: as §1, §2

Row | SMILES | ED50 (Male CFLP (LATI) mice [1]; 1 h) [mg/kg] | ED50 (Male CFLP (LATI) mice [2]; 1 h) [mg/kg] | LD50 at 336 h (Acute toxicity (LD50)) [mg/kg] | Anticonvulsive activity PTT K1 (clonic spasm) ED50 (Male CFLP (LATI) mice [2]; 1 h) [mg/kg] | further results
1 | CC(=O)N1O[C@H](C)C(=S)N[C@@H]1c1ccccc1 (relative stereo) [A] | 11.9 | 6.1 | 1000 |  | 
2 | CC(=O)N1O[C@H](C)C(=S)N[C@@H]1c1ccccc1C (relative stereo) [C, 2-Acetyl-3-(2-methylphenyl)-6-methyl-tetrahydro-1,2,4-oxadiazine-5-thion] | 10 | 4.3 | 1000 |  | ED50 (Male CFLP (LATI) mice [3]): 25.6 mg/kg
3 | CC(=O)N1O[C@H](C)C(=S)N[C@@H]1c1ccc(N(C)C)cc1 (relative stereo) [D] | 30 | 9.9 | 1000 | 0 | 
4 | CC[C@H]1ON(C(C)=O)[C@@H](c2ccccc2)NC1=S (relative stereo) [F] |  | 15.4 | 1000 | 0 | inhibition at 30 mg/kg (Male CFLP (LATI) mice [1]; 1 h): 40%
5 | CC(=O)N1O[C@H](C)C(=S)N[C@@H]1c1ccccc1 [B] | 16.1 | 12.6 | 1000 |  | 
6 | O=C1NC(=O)C(c2ccccc2)(c2ccccc2)N1 [Compound K1, Diphenyl hydantoin, reference compound] |  |  |  |  | ED50 (Male CFLP (LATI) mice [1]; 1 hour after administration, corneal electrode 20 mA, 0.2 sec): 8.3 mg/kg; ED50 (Male CFLP (LATI) mice [2]; Pentetrazole 125 mg/kg 1 hour after administration, tonic extensoric spasm): 9.9 mg/kg; TD50 at 1 h [4]: 47.7 mg/kg; Acute tox. LD50 (Male CFLP (LATI) mice [5]): 278 mg/kg
7 | CC(=O)N1OCC(=O)NC1c1ccccc1 (centres unmarked) [Compound K2, 2-Acetyl-3-phenyl-tetrahydro-1,2,4-oxadiazine-5-one, reference compound] | 22.7 | 13.4 |  |  | TD50 at 1 h ([4]; rotating bar 12/minute, 120 seconds, 1 hour after administration, read-out: Neurotox. FR (rotating bar) ED50): 130 mg/kg
8 | CC(=O)N1OCC(=S)NC1c1ccccc1 (centres unmarked) [E, 2-Acetyl-3-phenyl-tetrahydro-1,2,4-oxadiazine-5-thion] |  | 16.6 | 1000 | 0 | inhibition at 30 mg/kg (Male CFLP (LATI) mice [1]; 1 h): 10%
